# Test results from patent publication US9895466B2, “Liposomal drug delivery system for bone cements” (UNIVERSITY COLLEGE CARDIFF CONSULTANTS LIMITED, priority 2013, dated 2018).
# Tested on: Staphylococcus aureus (S. aureus)
# Test: Microbial growth and zones of inhibition on agar plates
# Assay type: cell-based
# Conditions: 24 hours at 37° C.
# Protocol: 10 mm diameter by 2 mm thick cylindrical bone cement samples were prepared as previously described for Palacos R, Palacos R+G and Palacos R with 200 mg of L61 liposomal gentamicin sulphate. Tryptone soya agar (TSA) was prepared by dissolving 40 g of tryptone soy agar medium in one liter of distilled water. The solution was boiled for one minute then sterilized in an autoclave at 121° C. for 15 minutes. The solution was allowed to cool to 45-50° C. before being dispensed into petri dishes (9 cm diameter). The petri dishes were cooled to room temperature then stored at 8-15° C. until use. Staphylococcus aureus (S. aureus) was cultured in tryptic soy broth (TSB) for 18-24 hours at 37° C. A sterile cotton swab was used to spread the inoculum across the TSA petri dish. The petri dish was turned by 60° and the process was repeated to ensure complete surface coverage. A 10 ug gentamicin standard disc was placed on the petri dish as a control and pressure was applied to the top of the disc to ensure full surface contact. […] The petri dish was then incubated at 37° C. for 18-24 hours, after which, the zones of inhibition around the samples and gentamicin disc were measured. Images of the zones of inhibition were taken and measured using ImageJ software (National Institutes of Health, Maryland, USA). The zones of inhibition were measured as the radius of the zone minus the radius of the sample. […]
substance,measurement,value
gentamicin sulphate,Zone of inhibition against S. aureus,created a zone of inhibition
